The values below come from publication PMC2151593 (The Journal of General Physiology, 2006).

Structures are written as SMILES.

The target in series [1] is Shaker T449F (Drosophila melanogaster, UniProt P08510, C301S/C308S/DEL6-46/T449F). It is filed as cell-based.
The target of series [2] is T1, Shaker Thr449 (wild type) (Drosophila melanogaster, UniProt P08510, C301S/C308S/DEL6-46). Put plainly: Extracellular TEA block of voltage-clamped potassium currents, Shaker with Thr. The format is cell-based. Conditions: Thr at 449 relative to Phe; ΔΔG = RT ln(K i,X/K i,Phe).
The subject of series [3] is Shaker T449X, X = 4F-Phe. The format is cell-based. The conditions noted are these: 4F-Phe at 449 relative to Phe; ΔΔG = RT ln(K i,X/K i,Phe).
Series [4] relates to Shaker T449X, X = 3,5F-Phe. The format is cell-based. Conditions: 3,5F-Phe at 449 relative to Phe; ΔΔG = RT ln(K i,X/K i,Phe).
For series [5], the system named is Shaker T449X, X = 3,4,5F-Phe. It is filed as cell-based. The conditions noted are these: 3,4,5F-Phe at 449 relative to Phe; ΔΔG = RT ln(K i,X/K i,Phe).
The subject of series [6] is Shaker T449X, X = Cha. The format is cell-based.
Series [7] has as its system Shaker, fluorinated derivatives of Phe449. Put plainly: Voltage dependence of TEA block, all fluorinated derivatives of Phe449. It is filed as cell-based.
Series [8] has as its system KcsA. Kind of series: TEA block of KcsA. The format is biochemical, Streptomyces lividans. The conditions noted are these: higher than for Shaker T449F.
Series [9] has as its target T1, Shaker Thr449 (wild type). Conditions: ref Heginbotham and MacKinnon, 1992; cited from earlier work.
Series [10] concerns Shaker Tyr449. The conditions noted are these: ref Heginbotham and MacKinnon, 1992; cited from earlier work.
Series [11] has as its target KcsA. Conditions: read-out: K i for TEA block; KcsA (Tyr82); ref Heginbotham et al., 1999; cited from earlier work.
For series [12] the following is noted: benzene compared with hexafluorobenzene; ref Leo et al., 1971; cited from earlier work.

Consider `CC[As+](CC)(CC)CC` [TEAs, tetraethylarsonium], for which, in series [1] (Shaker T449F, unpublished data), the “factor by which TEAs is a weaker blocker (larger inhibitory constant) than TEA” value is reported as around 25 fold.
As to `CC[N+](CC)(CC)CC` [TEA, tetraethylammonium], the ΔΔG was determined as 0 kcal/mol in series [1] (Phe at 449 (reference), ΔΔG = RT ln(K i,X/K i,Phe), RT 0.58 kcal/mol); 2.58 kcal/mol in series [2]; 1.23 kcal/mol in [3]; 2.78 kcal/mol in [4]; 3.54 kcal/mol in [5]; 3.75 kcal/mol in series [6] (Cha at 449 relative to Phe, ΔΔG = RT ln(K i,X/K i,Phe)). In series [6] (nonaromatic residue Cha at 449), the “effect on TEA affinity (decrease relative to Phe)” value came out at 640 fold. Further, the “voltage dependence of block” value in [7] is listed as 2–8%. Also, in series [8], the “K i for TEA block of KcsA relative to Shaker T449F” value is around 10 fold. Also, the “fraction of the transmembrane electric field sensed by TEA” value in series [9] is on record as 19%; in series [10] it was 4%. Moreover, the Ki in series [11] is 3.2 mM.
For the molecule `Fc1c(F)c(F)c(F)c(F)c1F` [hexafluorobenzene], in [12], the “logP (water/octanol partition)” value is “nearly identical”.
